Source: patent publication US20250179083A1, “TRICYCLIC TRIAZOLO COMPOUNDS AS DGK INHIBITORS” (Incyte Corporation, priority 2023, published 2025)

Assays:
DGKα = target: T1, DGKα (Homo sapiens, UniProt P23743); assay: In vitro DGKα inhibition assay (ADP-Glo); format: biochemical; settings: His-tagged human recombinant DGKα 0.1 nM, 50 μM ATP, 20 μM DLG, 90 minute incubation
T1 construct: His; purchased Signal Chem D21-10BH
Procedure: (§1) The DGKα and DGKζ biochemical reactions were performed using His-tagged human recombinant enzymes (Signal Chem, DGKα, #D21-10BH; DGKζ, #D30-10H)) and DLG (Dilauroyl-sn-glycerol) lipid substrate (Signal Chem, #D430-59). ADP-Glo assay was performed using ADP-Glo™ kinase Assay kit (Promega, #V9104). The reactions were carried out in assay buffer containing 40 mM Tris, pH 7.5, 0.1% CHAPS, 0.1% Prionex, 40 mM NaCl, 5 mM MgCl2, 1 mM CaCl2, and 1 mM DTT. DGKα reactions contained 0.1 nM DGKα, 50 μM ATP, and 20 μM DLG. And DGKζ reactions contained 0.4 nM DGKζ, 30 μM ATP, and 20 μM DLG.
(§2) Compounds were added with top concentration of 2 mM with 11 point, 3-fold dilution series. Enzyme solution (contains 2×DGK enzyme concentration in 1× assay buffer) was added to the plate in 2 μL/well volume, followed by 2 μL/well of substrate solution (contains 2× concentration of ATP and DLG substrate in 1× assay buffer). Plates were then centrifuged for 1 min at 1200 RPM and sealed or lidded. For 4 μL reaction volume, test compounds were therefore diluted 100× to final top concentration of 20 μM. After 90 minute incubation, reactions were quenched by addition of 2 μL/well Promega ADP-Glo Reagent, followed by centrifugation and lidding. After 60 min incubation, 2 μL/well Promega Kinase Detection Reagent was added, plates centrifuged, and incubated for 30 min. Plates were then read using Luminescence method on BMG PHERAstar FSX plate reader. Percent inhibition was calculated and IC50s were determined using 4-parameter fit in Genedata Screener. Labcyte Echo acoustic dispenser was used for compound addition, and Formulatrix Tempest liquid handler was used for all reagent dispenses.

DGKζ = target: T2, DGKζ (Homo sapiens, UniProt Q13574); assay: In vitro DGKζ inhibition assay (ADP-Glo); format: biochemical; settings: His-tagged human recombinant DGKζ 0.4 nM, 30 μM ATP, 20 μM DLG, 90 minute incubation
T2 construct: His; purchased Signal Chem D30-10H
T2 sequence (Q13574 whole entry): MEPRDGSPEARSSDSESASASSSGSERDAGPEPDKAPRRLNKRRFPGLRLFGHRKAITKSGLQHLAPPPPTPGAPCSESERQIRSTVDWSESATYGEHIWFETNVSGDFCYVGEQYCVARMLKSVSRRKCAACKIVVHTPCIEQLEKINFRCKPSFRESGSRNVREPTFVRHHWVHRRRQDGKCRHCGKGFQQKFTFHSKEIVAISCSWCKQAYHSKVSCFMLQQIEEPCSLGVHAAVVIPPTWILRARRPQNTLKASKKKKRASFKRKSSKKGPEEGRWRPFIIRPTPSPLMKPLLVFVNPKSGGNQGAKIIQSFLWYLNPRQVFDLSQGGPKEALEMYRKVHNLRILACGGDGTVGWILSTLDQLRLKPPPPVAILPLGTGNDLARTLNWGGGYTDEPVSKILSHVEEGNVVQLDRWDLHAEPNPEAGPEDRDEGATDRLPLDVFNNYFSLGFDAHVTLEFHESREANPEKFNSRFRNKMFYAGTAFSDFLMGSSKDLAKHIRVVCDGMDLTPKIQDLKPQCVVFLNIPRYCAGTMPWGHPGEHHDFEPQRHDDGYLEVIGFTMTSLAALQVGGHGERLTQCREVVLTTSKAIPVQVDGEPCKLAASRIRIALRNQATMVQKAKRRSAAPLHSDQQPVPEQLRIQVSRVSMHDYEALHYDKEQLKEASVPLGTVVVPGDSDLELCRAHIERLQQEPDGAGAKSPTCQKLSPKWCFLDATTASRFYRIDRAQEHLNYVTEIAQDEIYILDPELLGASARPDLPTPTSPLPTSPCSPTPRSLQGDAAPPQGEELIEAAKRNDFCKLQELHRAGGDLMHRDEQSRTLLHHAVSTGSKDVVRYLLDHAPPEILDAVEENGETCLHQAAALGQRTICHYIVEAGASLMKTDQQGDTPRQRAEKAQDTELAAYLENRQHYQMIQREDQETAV
Procedure: as §1, §2

T1 sequence (P23743 whole entry): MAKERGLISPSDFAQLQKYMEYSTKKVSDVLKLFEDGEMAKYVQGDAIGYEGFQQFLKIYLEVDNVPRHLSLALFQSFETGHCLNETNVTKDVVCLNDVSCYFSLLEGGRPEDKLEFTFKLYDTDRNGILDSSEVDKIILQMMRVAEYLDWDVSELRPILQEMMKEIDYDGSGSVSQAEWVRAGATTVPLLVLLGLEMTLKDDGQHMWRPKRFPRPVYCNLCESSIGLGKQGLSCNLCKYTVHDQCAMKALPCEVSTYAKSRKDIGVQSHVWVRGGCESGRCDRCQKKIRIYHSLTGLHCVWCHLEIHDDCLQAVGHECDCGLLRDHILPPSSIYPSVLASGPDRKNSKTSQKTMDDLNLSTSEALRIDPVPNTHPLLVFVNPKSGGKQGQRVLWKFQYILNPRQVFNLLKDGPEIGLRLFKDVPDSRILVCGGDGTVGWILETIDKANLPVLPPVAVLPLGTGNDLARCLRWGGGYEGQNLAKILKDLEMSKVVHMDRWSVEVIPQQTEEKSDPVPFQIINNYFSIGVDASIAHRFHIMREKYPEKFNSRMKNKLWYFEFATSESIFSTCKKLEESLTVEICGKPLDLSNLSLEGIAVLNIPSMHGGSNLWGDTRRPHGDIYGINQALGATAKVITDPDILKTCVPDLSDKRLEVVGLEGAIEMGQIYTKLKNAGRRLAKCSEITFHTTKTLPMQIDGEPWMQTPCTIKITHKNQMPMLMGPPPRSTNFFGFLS

| SMILES | IC50 (DGKα) [nM] | IC50 (DGKζ) [nM] |
| --- | --- | --- |
| C[C@@H]1CN(c2cc3nncn3c3c2ncn3C[C@@H]2CCCO2)[C@@H](C)CN1C(c1ccc(Cl)cc1)C1CC(F)(F)C1 (single isomer, unassigned) [Example 61] | < 20 | < 20 |
| Cc1nc2c(N3C[C@@H](C)N(Cc4ccc(Cl)c(Cl)c4)C[C@@H]3C)nc3nncn3c2n1C[C@@H]1CCCO1 [Example 72, 4-((2S,5R)-4-(3,4-Dichlorobenzyl)-2,5-dimethylpiperazin-1-yl)-2-methyl-1-(((S)-tetrahydrofuran-2-yl)methyl)-1H-[1,2,4]triazolo[3,4-b]purine] | < 20 | < 20 |
| CC[C@@H]1CN(c2nc3nncn3c3c2nc(C)n3C[C@@H]2CCCO2)[C@@H](C)CN1[C@@H](C)c1ccc(C(F)(F)F)cc1 [Example 41, 4-((2S,5R)-5-Ethyl-2-methyl-4-((S)-1-(4-(trifluoromethyl)phenyl)ethyl)piperazin-1-yl)-2-methyl-1-(((S)-tetrahydrofuran-2-yl)methyl)-1H-[1,2,4]triazolo[3,4-b]purine] | < 20 | < 20 |
| C[C@@H]1CN(c2nc3nncn3c3c2ncn3C[C@@H]2CCCO2)[C@@H](C)CN1C(c1ccc(Cl)cc1)C1CC1 (stereo partly drawn) [Example 10, 4-((2S,5R)-4-((4-Chlorophenyl)(cyclopropyl)methyl)-2,5-dimethylpiperazin-1-yl)-1-(((S)-tetrahydrofuran-2-yl)methyl)-1H-[1,2,4]triazolo[3,4-b]purine] | < 20 | < 20 |
| C[C@@H]1CN(c2nc3nncn3c3c2ncn3C[C@@H]2CCCO2)[C@@H](C)CN1C(c1ccc(C(F)(F)F)cc1)[C@@H]1CC1(F)F (single isomer, unassigned) [Example 13] | < 20 | < 20 |
| Cc1nc2c(N3C[C@@H](C)N([C@@H](c4ccc(Cl)cc4)C(C)C)C[C@@H]3C)cc3nncn3c2n1C[C@@H]1CCCO1 [Example 66, 4-((2S,5R)-4-((R)-1-(4-chlorophenyl)-2-methylpropyl)-2,5-dimethylpiperazin-1-yl)-2-methyl-1-(((S)-tetrahydrofuran-2-yl)methyl)-1H-imidazo[4,5-e][1,2,4]triazolo[4,3-a]pyridine] | < 20 | < 20 |
| CC[C@@H]1CN(c2nc3nncn3c3c2ncn3C[C@@H]2CCCO2)[C@@H](C)CN1C(c1ccc(C(F)(F)F)cc1)C1CC(F)(F)C1 (stereo partly drawn) [Example 35, 4-((2S,5R)-4-((3,3-Difluorocyclobutyl)(4-(trifluoromethyl)phenyl)methyl)-5-ethyl-2-methylpiperazin-1-yl)-1-(((S)-tetrahydrofuran-2-yl)methyl)-1H-[1,2,4]triazolo[3,4-b]purine] | < 20 | < 20 |
| C[C@@H]1CN(c2nc3nncn3c3c2ncn3C[C@@H]2CCCO2)[C@@H](C)CN1C(c1ccc(C(F)F)c(F)c1)C1CC(F)(F)C1 (stereo partly drawn) [Example 2, 4-((2S,5R)-4-((3,3-Difluorocyclobutyl)(4-(difluoromethyl)-3-fluorophenyl)methyl)-2,5-dimethylpiperazin-1-yl)-1-(((S)-tetrahydrofuran-2-yl)methyl)-1H-[1,2,4]triazolo[3,4-b]purine] | < 20 | < 20 |
| Cc1nc2c(N3C[C@@H](C)N(C(CC(C)C)c4ccc(Cl)cc4)C[C@@H]3C)nc3nncn3c2n1C[C@@H]1CCCO1 (single isomer, unassigned) [Example 53] | < 20 | < 20 |
| CC(C)[C@H](c1ccc2cc(C(F)(F)F)ccc2n1)N1C[C@H](C)N(c2nc3nncn3c3c2ncn3C[C@@H]2CCCO2)C[C@H]1C [Example 84, 4-((2S,5R)-2,5-dimethyl-4-((R)-2-methyl-1-(6-(trifluoromethyl)quinolin-2-yl)propyl)piperazin-1-yl)-1-(((S)-tetrahydrofuran-2-yl)methyl)-1H-[1,2,4]triazolo[3,4-b]purine] | < 20 | < 20 |
| C[C@@H]1CN(c2nc3nncn3c3c2ncn3CC2(O)CCCC2)[C@@H](C)CN1C(c1ccc(C(F)(F)F)cc1)C1CC(F)(F)C1 (stereo partly drawn) [Example 46, 1-((4-((2S,5R)-4-((3,3-Difluorocyclobutyl)(4-(trifluoromethyl)phenyl)methyl)-2,5-dimethylpiperazin-1-yl)-1H-[1,2,4]triazolo[3,4-b]purin-1-yl)methyl)cyclopentan-1-ol] | < 20 | < 20 |
| C[C@@H]1CN(c2nc3nncn3c3c2ncn3C[C@@H]2CCCO2)[C@@H](C)CN1C(C[C@@H](C)C(F)(F)F)c1ccc(Cl)c(F)c1 (single isomer, unassigned) [Example 16] | < 20 | < 20 |
| CC[C@@H](c1ccc(Cl)cc1)N1C[C@H](C)N(c2nc3nncn3c3c2ncn3C[C@@H]2CCCO2)C[C@H]1C [Example 57, 4-((2S,5R)-4-((S)-1-(4-Chlorophenyl)propyl)-2,5-dimethylpiperazin-1-yl)-1-(((S)-tetrahydrofuran-2-yl)methyl)-1H-[1,2,4]triazolo[3,4-b]purine] | < 20 | 20 to 200 |
| Cc1nc2c(N3C[C@H]4CC[C@@H](C3)N4C(c3ccc(F)cc3)c3ccc(F)cc3)nc3nncn3c2n1C[C@@H]1CCCO1 [Example 82, 4-((1R,5S)-8-(Bis(4-fluorophenyl)methyl)-3,8-diazabicyclo[3.2.1]octan-3-yl)-2-methyl-1-(((S)-tetrahydrofuran-2-yl)methyl)-1H-[1,2,4]triazolo[3,4-b]purine] | < 20 | < 20 |
| Cc1nc2c(N3C[C@@H](C)N([C@H](c4ccc(Cl)cc4)[C@H]4CC4(F)F)C[C@@H]3C)nc3nncn3c2n1C[C@@H]1CCCO1 (single isomer, unassigned) [Example 55] | < 20 | < 20 |
| Cc1nc2c(N3C[C@@H](C)N(C(c4ccc(C(F)F)cc4F)C(C)C)C[C@@H]3C)nc3nncn3c2n1C[C@@H]1CCCO1 (stereo partly drawn) [Example 25, 4-((2S,5R)-4-(1-(4-(Difluoromethyl)-2-fluorophenyl)-2-methylpropyl)-2,5-dimethylpiperazin-1-yl)-2-methyl-1-(((S)-tetrahydrofuran-2-yl)methyl)-1H-[1,2,4]triazolo[3,4-b]purine] | < 20 | < 20 |
| Cc1nc2c(N3C[C@@H](C)N(Cc4ccc(C(F)(F)F)cc4)C[C@@H]3C)nc3nncn3c2n1C[C@@H]1CCCO1 [Example 39, 4-((2S,5R)-2,5-Dimethyl-4-(4-(trifluoromethyl)benzyl)piperazin-1-yl)-2-methyl-1-(((S)-tetrahydrofuran-2-yl)methyl)-1H-[1,2,4]triazolo[3,4-b]purine] | < 20 | < 20 |
| Cc1nc2c(N3C[C@@H](C)N([C@H](c4ccc(Br)cc4F)C(C)C)C[C@@H]3C)nc3nncn3c2n1C[C@@H]1CCCO1 [Example 26, 4-((2S,5R)-4-((S)-1-(4-Bromo-2-fluorophenyl)-2-methylpropyl)-2,5-dimethylpiperazin-1-yl)-2-methyl-1-(((S)-tetrahydrofuran-2-yl)methyl)-1H-[1,2,4]triazolo[3,4-b]purine] | < 20 | < 20 |
| C[C@@H]1CN(c2nc3nncn3c3c2ncn3C[C@@H]2CCCO2)[C@@H](C)CN1C(c1ccc(Cl)cc1F)C1CC(F)(F)C1 (stereo partly drawn) [Example 31, 4-((2S,5R)-4-((4-Chloro-2-fluorophenyl)(3,3-difluorocyclobutyl)methyl)-2,5-dimethylpiperazin-1-yl)-1-(((S)-tetrahydrofuran-2-yl)methyl)-1H-[1,2,4]triazolo[3,4-b]purine] | < 20 | < 20 |
| CC[C@@H]1CN(c2nc3nncn3c3c2nc(C)n3C[C@@H]2CCCO2)[C@@H](C)CN1C(c1ccc(Cl)cc1)C1CC(F)(F)C1 (stereo partly drawn) [Example 78, 4-((2S,5R)-4-((4-Chlorophenyl)(3,3-difluorocyclobutyl)methyl)-5-ethyl-2-methylpiperazin-1-yl)-2-methyl-1-(((S)-tetrahydrofuran-2-yl)methyl)-1H-[1,2,4]triazolo[3,4-b]purine] | < 20 | < 20 |
| Cc1nc2c(N3C[C@@H](C)N([C@@H](c4ccc(Cl)cc4)[C@H]4CC4(F)F)C[C@@H]3C)nc3nncn3c2n1C[C@@H]1CCCO1 (single isomer, unassigned) [Example 56] | < 20 | < 20 |
| CC(C)CC(c1ccc(C(F)(F)F)cc1)N1C[C@H](C)N(c2nc3nncn3c3c2ncn3C[C@@H]2CCCO2)C[C@H]1C (single isomer, unassigned) [Example 14] | < 20 | < 20 |
| CC[C@H](c1ccc(C(F)(F)F)cc1)N1C[C@H](C)N(c2nc3nncn3c3c2nc(C)n3C[C@@H]2CCCO2)C[C@H]1C [Example 90, 4-((2S,5R)-2,5-dimethyl-4-((R)-1-(4-(trifluoromethyl)phenyl)propyl)piperazin-1-yl)-2-methyl-1-(((S)-tetrahydrofuran-2-yl)methyl)-1H-[1,2,4]triazolo[3,4-b]purine] | < 20 | < 20 |
